Data reported in PubChem BioAssay (NCI).
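Tested at 5 concentrations; 48 h exposure; 96-well plates; endpoints linearly interpolated, else capped at highest concentration. The concentration for 50% growth inhibition is given as GI50. The concentration for full growth arrest is given as TGI.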

Columns and labels:
Assay in all cases: growth of human tumour cells (NCI), 48 h
EKVX NSCLC = system: EKVX NSCLC
PC-3 prostate = system: PC-3 prostate
MOLT-4 leukemia = system: MOLT-4 leukemia
SN12C renal = system: SN12C renal
ACHN renal = system: ACHN renal
HS 578T breast = system: HS 578T breast
SF-268 CNS = system: SF-268 CNS
LOX IMVI melanoma = system: LOX IMVI melanoma
NCI/ADR-RES ovarian = system: NCI/ADR-RES ovarian
A549 NSCLC = system: A549 NSCLC
M14 melanoma = system: M14 melanoma
UO-31 renal = system: UO-31 renal
MDA-MB-435 = system: MDA-MB-435
OVCAR-4 ovarian = system: OVCAR-4 ovarian
T-47D breast = system: T-47D breast
MCF7 breast = system: MCF7 breast
NCI-H23 lung = system: NCI-H23 lung
HCC-2998 colon = system: HCC-2998 colon
OVCAR-5 ovarian = system: OVCAR-5 ovarian
IGROV1 ovarian = system: IGROV1 ovarian
NCI-H522 lung = system: NCI-H522 lung
SF-539 CNS = system: SF-539 CNS
HOP-62 NSCLC = system: HOP-62 NSCLC
TK-10 renal = system: TK-10 renal
OVCAR-8 ovarian = system: OVCAR-8 ovarian
UACC-257 melanoma = system: UACC-257 melanoma
SF-295 CNS = system: SF-295 CNS
HT29 colon = system: HT29 colon
BT-549 breast = system: BT-549 breast
SK-MEL-2 melanoma = system: SK-MEL-2 melanoma
NCI-H460 lung = system: NCI-H460 lung
U251 CNS = system: U251 CNS
CCRF-CEM leukemia = system: CCRF-CEM leukemia
SR leukemia = system: SR leukemia
SK-MEL-28 melanoma = system: SK-MEL-28 melanoma
786-0 renal = system: 786-0 renal
SNB-75 CNS = system: SNB-75 CNS
A498 renal = system: A498 renal
KM12 colon = system: KM12 colon
RPMI-8226 leukemia = system: RPMI-8226 leukemia
SK-MEL-5 melanoma = system: SK-MEL-5 melanoma
UACC-62 melanoma = system: UACC-62 melanoma
HCT-116 colon = system: HCT-116 colon
HL-60(TB) leukemia = system: HL-60(TB) leukemia
HCT-15 colon = system: HCT-15 colon
CAKI-1 renal = system: CAKI-1 renal
SNB-19 CNS = system: SNB-19 CNS
MALME-3M melanoma = system: MALME-3M melanoma
DU-145 prostate = system: DU-145 prostate
MDA-MB-231 breast = system: MDA-MB-231 breast
RXF 393 renal = system: RXF 393 renal
COLO 205 colon = system: COLO 205 colon
NCI-H226 lung = system: NCI-H226 lung
K-562 leukemia = system: K-562 leukemia
SW-620 colon = system: SW-620 colon
HOP-92 NSCLC = system: HOP-92 NSCLC
SK-OV-3 ovarian = system: SK-OV-3 ovarian

NS(=O)(=O)c1ccc(Nc2nc(N/N=C/c3ccccn3)nc(Nc3ccccc3)n2)cc1
GI50 (EKVX NSCLC): 1020 nM | TGI (EKVX NSCLC): 5300 nM | GI50 (PC-3 prostate): 665 nM | TGI (PC-3 prostate): > 100000 nM | GI50 (MOLT-4 leukemia): 495 nM | TGI (MOLT-4 leukemia): > 39700 nM | GI50 (SN12C renal): 1290 nM | TGI (SN12C renal): 6130 nM | GI50 (ACHN renal): 1960 nM | TGI (ACHN renal): 5470 nM | GI50 (HS 578T breast): 1670 nM | TGI (HS 578T breast): 5970 nM | GI50 (SF-268 CNS): 492 nM | TGI (SF-268 CNS): 4230 nM | GI50 (LOX IMVI melanoma): 657 nM | TGI (LOX IMVI melanoma): 3480 nM | GI50 (NCI/ADR-RES ovarian): 3080 nM | TGI (NCI/ADR-RES ovarian): > 100000 nM | GI50 (A549 NSCLC): 2290 nM | TGI (A549 NSCLC): 5360 nM | GI50 (M14 melanoma): 1090 nM | TGI (M14 melanoma): 2480 nM | GI50 (UO-31 renal): 1680 nM | TGI (UO-31 renal): 4910 nM | GI50 (MDA-MB-435): 917 nM | TGI (MDA-MB-435): 2390 nM | GI50 (OVCAR-4 ovarian): 460 nM | TGI (OVCAR-4 ovarian): 2590 nM | GI50 (T-47D breast): 346 nM | TGI (T-47D breast): 2730 nM | GI50 (MCF7 breast): 1300 nM | TGI (MCF7 breast): 3240 nM | GI50 (NCI-H23 lung): 1510 nM | TGI (NCI-H23 lung): 4430 nM | GI50 (HCC-2998 colon): 703 nM | TGI (HCC-2998 colon): 3480 nM | GI50 (OVCAR-5 ovarian): 1720 nM | TGI (OVCAR-5 ovarian): 6610 nM | GI50 (IGROV1 ovarian): 1020 nM | TGI (IGROV1 ovarian): 5110 nM | GI50 (NCI-H522 lung): 431 nM | TGI (NCI-H522 lung): 3420 nM | GI50 (SF-539 CNS): 683 nM | TGI (SF-539 CNS): 2530 nM | GI50 (HOP-62 NSCLC): 511 nM | TGI (HOP-62 NSCLC): 4650 nM | GI50 (TK-10 renal): 1100 nM | TGI (TK-10 renal): 5260 nM | GI50 (OVCAR-8 ovarian): 498 nM | TGI (OVCAR-8 ovarian): > 100000 nM | GI50 (UACC-257 melanoma): 2140 nM | TGI (UACC-257 melanoma): 5390 nM | GI50 (SF-295 CNS): 1720 nM | TGI (SF-295 CNS): 7100 nM | GI50 (HT29 colon): 1790 nM | TGI (HT29 colon): 5930 nM | GI50 (BT-549 breast): 898 nM | TGI (BT-549 breast): 6920 nM | GI50 (SK-MEL-2 melanoma): 1280 nM | TGI (SK-MEL-2 melanoma): 2670 nM | GI50 (NCI-H460 lung): 2430 nM | TGI (NCI-H460 lung): 6630 nM | GI50 (U251 CNS): 514 nM | TGI (U251 CNS): > 100000 nM | GI50 (CCRF-CEM leukemia): 395 nM | TGI (CCRF-CEM leukemia): > 100000 nM | GI50 (SR leukemia): 342 nM | TGI (SR leukemia): > 100000 nM | GI50 (SK-MEL-28 melanoma): 809 nM | TGI (SK-MEL-28 melanoma): 2300 nM | GI50 (786-0 renal): 1060 nM | TGI (786-0 renal): > 100000 nM | GI50 (SNB-75 CNS): 1210 nM | TGI (SNB-75 CNS): 2630 nM | GI50 (A498 renal): 1570 nM | TGI (A498 renal): 3180 nM | GI50 (KM12 colon): 2190 nM | TGI (KM12 colon): 5140 nM | GI50 (RPMI-8226 leukemia): 2400 nM | TGI (RPMI-8226 leukemia): 6010 nM | GI50 (SK-MEL-5 melanoma): 1020 nM | TGI (SK-MEL-5 melanoma): 2340 nM | GI50 (UACC-62 melanoma): 788 nM | TGI (UACC-62 melanoma): 2310 nM | GI50 (HCT-116 colon): 395 nM | TGI (HCT-116 colon): > 100000 nM | GI50 (HL-60(TB) leukemia): 709 nM | TGI (HL-60(TB) leukemia): > 28900 nM | GI50 (HCT-15 colon): 1740 nM | TGI (HCT-15 colon): > 100000 nM | GI50 (CAKI-1 renal): 701 nM | TGI (CAKI-1 renal): 4890 nM | GI50 (SNB-19 CNS): 947 nM | TGI (SNB-19 CNS): > 27400 nM | GI50 (MALME-3M melanoma): 1000 nM | TGI (MALME-3M melanoma): 2510 nM | GI50 (DU-145 prostate): 855 nM | TGI (DU-145 prostate): 4900 nM | GI50 (MDA-MB-231 breast): 620 nM | TGI (MDA-MB-231 breast): 7060 nM | GI50 (RXF 393 renal): 1240 nM | TGI (RXF 393 renal): 2910 nM | GI50 (COLO 205 colon): 523 nM | TGI (COLO 205 colon): 1950 nM | GI50 (NCI-H226 lung): 1070 nM | TGI (NCI-H226 lung): 5970 nM | GI50 (K-562 leukemia): 433 nM | TGI (K-562 leukemia): > 100000 nM | GI50 (SW-620 colon): 786 nM | TGI (SW-620 colon): > 100000 nM | GI50 (HOP-92 NSCLC): 853 nM | TGI (HOP-92 NSCLC): 4820 nM | GI50 (SK-OV-3 ovarian): 773 nM | TGI (SK-OV-3 ovarian): 3920 nM
